The compounds below were run on NaCT-CHO (CHO cells stably expressing human NaCT) (assay: Assay of the citric acid cycle activation ([1,5-14C]-citric acid, diffusion of [14C]-CO2)). Settings: 1 hour incubation at 37° C. with [1,5-14C]-citric acid.
Assay type: cell-based
Excerpt: Assay of the Citric Acid Cycle Activation
(1) Construction of the Human NaCT Expression Vector pME-NaCT
The human NaCT (also called SLC13A5 or NAC2; GenBank accession No. NM_177550) cDNA was inserted into the EcoRI-NotI site of the mammalian expression vector pME18S (GenBank accession No. AB009864) and purified by Qiagen Plasmid Maxi Kit (Qiagen).
(2) Establishment of NaCT Stably Expressed CHO Cells
The pME-NaCT vector and the pcDNA™3.1 vector containing the neomycin resistance gene (Life Technologies) were co-transfected into CHO-K1 cells (ATCC) by Lipofectaimine 2000 reagent (Life Technologies). The next day the cells were subcultured in Nutrient Mixture F-12 Ham (Sigma-Aldrich) with 10% FBS (Biological Industries), and Geneticin (Life Technologies) was added (final concentration 350 μg/mL) in the following day. CHO cell clones stably expressing NaCT were given by neomycin resistant cell screening and limiting dilution method. Established cell lines (named NaCT-CHO) were also maintained in culture medium (Nutrient Mixture F-12 Ham) with 10% FBS and 350 μg/mL Geneticin. For control cells (named pME-CHO) preparation, the naive pME18S were also transfected instead of pME-NaCT into CHO-K1 cells.
(3) Assay of the Citric Acid Cycle Activation
NaCT-CHO and pME-CHO were plated at 20,000 cells/well into white CulturPlate™-96 (PerkinElmer) two days before the assay. Prior to assay incubation, the cultured plates were washed twice with washing buffer, 10 mM HEPES-Tris(pH7.4) containing 140 mM choline chloride, 2 mM KCl, 1 mM CaCl2, 1 mM MgCl2. The compounds to be tested were dissolved and diluted in DMSO (Wako Pure Chemical industries) to 1,000 times of a final concentration, and further diluted to two times as high as the final concentration in assay buffer, 10 mM HEPES-Tris(pH7.4) containing 140 mM NaCl, 2 mM KCl, 1 mM CaCl2, 1 mM MgCl2. The range of final concentrations was properly determined based on the test compounds activity. Each 25 μL compound solution was added to well and subsequently 25 μL radio-labeled substrate solution containing 0.4 mM (0.4 MBq/mL) [1,5-^14C]-citric acid (PerkinElmer) in the assay buffer was added. After 1 hour incubation at 37° C., the reaction mixture was discarded and washed three times with pre-chilled washing buffer and then 0.1 mL MicroScint 20 (PerkinElmer) was added to well. The plate was sealed with TopSeal-A (PerkinElmer) and the radioactivity was measured using a TopCount (PerkinElmer). Non-specific activity (NS cpm) and total radio activity (Total cpm) were determined by counting of pME-CHO plated wells and NaCT-CHO plated wells without compounds, respectively. Diffusion of [^14C]—CO2 was able to be estimated from residual radioactivity (R cpm) by an equation (Total−R)/(Total−NS)×100(%). The difference of Total and R was disappeared in the presence of 0.1 μM antimycin A. EC50 values were calculated by regression analysis using SAS Statistical Analysis System (SAS institute Japan Ltd. Release 9.1).

In order of falling EC50:
1. N#Cc1[nH]nnc1-c1coc(-c2ccc(OC(F)(F)F)cc2)n1 [Example 117, 5-[2-(4-trifluoromethoxy-phenyl)-oxazol-4-yl]-3H-[1,2,3]triazole-4-carbonitrile]  1.59 µM
2. CCN(c1cccc(C(F)(F)F)c1)c1nc(-c2nn[nH]c2C#N)cs1 [Example 84, 5-{2-[N-ethyl-N-(3-trifluoromethyl-phenyl)-amino]-thiazol-4-yl}-3H-[1,2,3]triazole-4-carbonitrile]  1.5 µM
3. CN(c1ccc(Cl)cc1)c1nc(-c2nn[nH]c2C#N)cs1 [Example 83, 5-{2-[N-(4-chloro-phenyl)-N-methyl-amino]-thiazol-4-yl}-3H-[1,2,3]triazole-4-carbonitrile]  1.08 µM
4. N#Cc1[nH]nnc1-c1nc(-c2cccc(Cl)c2)oc1C1CC1 [Example 121, 5-[2-(3-chloro-phenyl)-5-cyclopropyl-oxazol-4-yl]-3H-[1,2,3]triazole-4-carbonitrile]  0.99 µM
5. N#Cc1[nH]nnc1-c1cc(OCc2cc(C(F)(F)F)ccc2C(F)(F)F)cc(C(F)(F)F)c1 [Example 63, 5-[3-(2,5-bis-trifluoromethyl-benzyloxy)-5-trifluoromethyl-phenyl]-3H-[1,2,3]triazole-4-carbonitrile]  0.96 µM
6. N#Cc1[nH]nnc1-c1sc2ccccc2c1-c1ccc(F)cc1 [Example 148, 5-[3-(4-fluoro-phenyl)-benzo[b]thiophen-2-yl]-3H-[1,2,3]triazole-4-carbonitrile]  0.92 µM
7. N#Cc1ccc(-c2nn[nH]c2C#N)cc1/C=C/c1cccc(C(F)(F)F)c1 [Example 45, 5-{4-cyano-3-[(E)-2-(3-trifluoromethyl-phenyl)-vinyl]-phenyl}-3H-[1,2,3]triazole-4-carbonitrile]  0.91 µM
8. Cc1sc(-c2cccc(C(F)(F)F)n2)nc1-c1nn[nH]c1C#N [Example 94, 5-[5-methyl-2-(6-trifluoromethyl-pyridin-2-yl)-thiazol-4-yl]-3H-[1,2,3]triazole-4-carbonitrile]  0.79 µM
9. N#Cc1[nH]nnc1-c1ccc(/C=C/c2cccc(C(F)(F)F)c2)cc1F [Example 73, 5-{2-fluoro-4-[(E)-2-(3-trifluoromethyl-phenyl)-vinyl]-phenyl}-3H-[1,2,3]triazole-4-carbonitrile]  0.73 µM
10. CCCc1oc(-c2ccc(Cl)cc2)nc1-c1nn[nH]c1C#N [Example 119, 5-[2-(4-chloro-phenyl)-5-propyl-oxazol-4-yl]-3H-[1,2,3]triazole-4-carbonitrile]  0.71 µM
11. N#Cc1[nH]nnc1Cc1cccc(-c2cccc(C(F)(F)F)c2)c1 [Example 149, 5-(3′-trifluoromethyl-biphenyl-3-ylmethyl)-3H-[1,2,3]triazole-4-carbonitrile]  0.7 µM
12. N#Cc1[nH]nnc1-c1ccc(F)c(-c2cc3ccccc3o2)c1 [Example 26, 5-(3-(benzofuran-2-yl)-4-fluoro-phenyl)-3H-[1,2,3]triazole-4-carbonitrile]  0.69 µM
13. N#Cc1[nH]nnc1-c1csc(Oc2cccc(C(F)(F)F)c2)n1 [Example 85, 5-[2-(3-trifluoromethyl-phenoxy)-thiazol-4-yl]-3H-[1,2,3]triazole-4-carbonitrile]  0.69 µM
14. CCOc1c(/C=C/c2cccc(C(F)(F)F)c2)cccc1-c1nn[nH]c1C#N [Example 43, 5-{2-ethoxy-3-[(E)-2-(3-trifluoromethyl-phenyl)-vinyl]-phenyl}-3H-[1,2,3]triazole-4-carbonitrile]  0.67 µM
15. CCc1nc(-c2ccc(Cl)cc2)sc1-c1[nH]nnc1C#N [Example 115, 5-[2-(4-chloro-phenyl)-4-ethyl-thiazol-5-yl]-1H-[1,2,3]triazole-4-carbonitrile]  0.65 µM
16. N#Cc1[nH]nnc1-c1cc(-c2ccccc2)c(C(F)(F)F)s1 [Example 128, 5-(4-phenyl-5-trifluoromethyl-thiophen-2-yl)-3H-[1,2,3]triazole-4-carbonitrile]  0.56 µM
17. N#Cc1[nH]nnc1-c1cccc(CCc2ccc(F)cc2F)c1 [Example 40, 5-{3-[2-(2,4-difluoro-phenyl)-ethyl]-phenyl}-3H-[1,2,3]triazole-4-carbonitrile]  0.55 µM
18. N#Cc1[nH]nnc1-c1cc(Cl)cc(-c2csc3ccccc23)c1 [Example 25, 5-(3-(benzo[b]thiophen-3-yl)-5-chloro-phenyl)-3H-[1,2,3]triazole-4-carbonitrile]  0.54 µM
19. N#Cc1[nH]nnc1-c1ccc(-c2cc(C(F)(F)F)ccn2)cc1 [Example 69, 5-[4-(4-trifluoromethyl-pyridin-2-yl)-phenyl]-3H-[1,2,3]triazole-4-carbonitrile]  0.53 µM
20. N#Cc1[nH]nnc1-c1cccc(OCc2cc3ccccc3o2)c1 [Example 59, 5-[3-(benzofuran-2-ylmethoxy)-phenyl]-3H-[1,2,3]triazole-4-carbonitrile]  0.5 µM
21. N#Cc1[nH]nnc1-c1cc(Cl)cc(CC2CC2)c1 [Example 1, 5-(3-chloro-5-cyclopropylmethyl-phenyl)-3H-[1,2,3]triazole-4-carbonitrile]  0.5 µM
22. N#Cc1[nH]nnc1-c1cccc(COc2cc(C(F)(F)F)cc(C(F)(F)F)c2)c1 [Example 57, 5-[3-(3,5-bis-trifluoromethyl-phenoxymethyl)-phenyl]-3H-[1,2,3]triazole-4-carbonitrile]  0.48 µM
23. N#Cc1[nH]nnc1-c1cccc(/C=C\c2cc(C(F)(F)F)cc(C(F)(F)F)c2)c1 [Example 53, 5-{3-[(Z)-2-(3,5-bis-trifluoromethyl-phenyl)-vinyl]-phenyl}-3H-[1,2,3]triazole-4-carbonitrile]  0.48 µM
24. N#Cc1[nH]nnc1-c1ccc(-c2cccc(C(F)(F)F)c2)cc1 [Example 68, 5-(3′-trifluoromethyl-biphenyl-4-yl)-3H-[1,2,3]triazole-4-carbonitrile]  0.46 µM
25. Cc1nc(-c2cccc(C(F)(F)F)c2)sc1-c1nn[nH]c1C#N [Example 114, 5-[4-methyl-2-(3-trifluoromethyl-phenyl)-thiazol-5-yl]-3H-[1,2,3]triazole-4-carbonitrile]  0.45 µM
26. N#Cc1[nH]nnc1-c1cccc(Sc2ccc(Cl)cc2)c1 [Example 38, 5-[3-(4-chloro-phenylsulfanyl)-phenyl]-3H-[1,2,3]triazole-4-carbonitrile]  0.42 µM
27. Cc1cc(-c2cc(F)cc(C(F)(F)F)c2)cc(-c2nn[nH]c2C#N)c1 [Example 31, 5-(5′-fluoro-5-methyl-3′-trifluoromethyl-biphenyl-3-yl)-3H-[1,2,3]triazole-4-carbonitrile]  0.38 µM
28. N#Cc1[nH]nnc1-c1cc(F)cc(-c2cccc(C(F)(F)F)c2)c1 [Example 28, 5-(5-fluoro-3′-trifluoromethyl-biphenyl-3-yl)-3H-[1,2,3]triazole-4-carbonitrile]  0.37 µM
29. CCc1sc(Oc2ccc(Cl)cc2)nc1-c1nn[nH]c1C#N [Example 102]  0.36 µM
30. N#Cc1[nH]nnc1-c1ccc(Oc2cccc(C(F)(F)F)c2)s1 [Example 132, 5-[5-(3-trifluoromethyl-phenoxy)-thiophen-2-yl]-3H-[1,2,3]triazole-4-carbonitrile]  0.32 µM
31. N#Cc1[nH]nnc1-c1sccc1-c1cc(C(F)(F)F)cc(C(F)(F)F)c1 [Example 126, 5-[3-(3,5-bis-trifluoromethyl-phenyl)-thiophen-2-yl]-3H-[1,2,3]triazole-4-carbonitrile]  0.26 µM
32. Cc1cc(F)cc(-c2nn[nH]c2C#N)c1OCc1cc(F)cc(C(F)(F)F)c1 [Example 9, 5-[5-fluoro-2-(3-fluoro-5-trifluoromethyl-benzyloxy)-3-methyl-phenyl]-3H-[1,2,3]triazole-4-carbonitrile]  0.23 µM
33. N#Cc1[nH]nnc1-c1ccccc1Cc1cc(C(F)(F)F)cc(C(F)(F)F)c1 [Example 5, 5-[2-(3,5-bis-trifluoromethyl-benzyl)-phenyl]-3H-[1,2,3]triazole-4-carbonitrile]  0.2 µM
34. N#Cc1[nH]nnc1-c1cc(C(F)(F)F)ccc1CCc1ccccc1 [Example 7, 5-(2-phenethyl-5-trifluoromethyl-phenyl)-3H-[1,2,3]triazole-4-carbonitrile]  0.17 µM

From US10626095B2, “Cyanotriazole compounds” (OTSUKA PHARMACEUTICAL CO., LTD., priority 2013, dated 2020)
